According to patent US8465788B2, “Arabinoxylans for modulating the barrier function of the intestinal surface” (BioActor B.V., priority 2008, dated 2013):

Legend:
bifidobacteria = experiment: DGGE fingerprint of the bifidobacterial community in the cecum of human-microbiota associated rats; assay type: in vivo, rat; conditions: 10% in diet, three weeks
Text: FIG. 3 DGGE (Denaturing Gradient Gel Electrophoresis) fingerprint profiles of the community of bifidobacteria in the cecum of three groups of human-microbiota associated rats (n=8/group) treated for 3 weeks with a control diet, inulin (10%) or AX (10%). The profiles were obtained after amplification of the bifidobacterial community using group-specific PCR primers.
Three groups of eight rats with human associated microbiotia were used in the experiment: • Control • Inulin • AX
During three weeks animals were treated with either 10% inulin, AX or a control diet (=5% sugar+5% cornstarch) in order to compare the prebiotic effects of both oligosaccharides. At the end of the three weeks, the animals were euthanized.
In addition to this, the composition of the bifidobacterial community in the cecum was monitored by Denaturing Gradient Gel Electrophoresis (DGGE) (FIG. 3). […] Bifidobacterium longum is one of most important inhabitants in the human body. This bacterium is very helpful because it maintains a normal digestive tract, inhibits the growth of harmful bacteria, and also boosts the immune system (Reinert, Birgit. “Friendly tenants in the human gut: The genome of B. longum”. 2002. Genome News Network).

[1] = test system: fecal microbial community; experiment: SHIME in vitro gastrointestinal model: short chain fatty acid (A, P, B) ratios; assay type: cell-based, human; conditions: for A ratio (A/(A + P + B)), Ascending colon / A ratio, Descending colon / A ratio, Transverse colon / B ratio, Ascending colon / B ratio, Descending colon / B ratio, Transverse colon / P ratio, Ascending colon / P ratio, Descending colon / P ratio, Transverse colon: TWINSHIME
Text: In Vitro Gastrointestinal Model—the Simulator of the Human Intestinal Microbial Ecosystem (SHIME)
The reactor setup was adapted from the SHIME, representing the gastrointestinal tract of the adult human, as described by Molly et al. (Molly, Woestyne et al. 1993). The SHIME consists of a succession of five reactors simulating the different parts of the human gastrointestinal tract. The first two reactors are of the fill-and-draw principle to simulate different steps in food uptake and digestion, with peristaltic pumps adding a defined amount of SHIME feed (140 mL 3×/day) and pancreatic and bile liquid (60 mL 3×/day), respectively to the stomach (V1) and duodenum (V2) compartment and emptying the respective reactors after specified intervals. The last three compartments are continuously stirred reactors with constant volume and pH control. Retention time and pH of the different vessels are chosen in order to resemble in vivo conditions in the different parts of the gastrointestinal tract. The overall residence time of the last three vessels, simulating the large intestine, is 76 h. Upon inoculation with fecal microbiota, these reactors simulate the ascending (V3), transverse (V4) and descending (V5) colon. Inoculum preparation, retention time, pH, temperature settings and reactor feed composition were previously described by Possemiers et al. (Possemiers, Verthe et al. 2004). In the comparison with of AX with inulin, two systems with identical environmental conditions (identical pH and temperature control) were run in parallel.
For the evaluation of the 2 prebiotics, the colon compartments of the SHIME reactors were first inoculated with an isolated fecal microbial community of a selected healthy volunteer. The SHIME reactor was operated under nominal conditions to stabilize the microbial community and let it adapt its metabolic activity and community composition to the conditions prevailing in the respective colon compartments. This stabilization period lasted for 3 weeks.
During the basal period, the SHIME reactor was operated under nominal conditions. Parameters such as short chain fatty acid (SCFA) production and ammonium production were determined 3 times/week. The results of these analyses served as the background values to be used to compare the measured parameters from the treatment period. The basal period lasted 2 weeks.
During the treatment period, the SHIME reactor was operated under nominal conditions, but with a modified diet containing a lower amount of starch in the medium compared to that of the basal period. In parallel, the ascending colon compartment of the first SHIME received inulin, whereas the second SHIME received AX. Both compounds were added in low doses of 1.5 g/d. SCFA and ammonium production were determined 3 times/week. This treatment period typically lasts for 3 weeks.
During the washout period, the SHIME reactor was operated under nominal conditions, with the initial diet. SCFA and ammonium production were determined 3 times/week. Analysis of these parameters allowed to assess whether possible changes from the treatment period normalize again to the levels of the basal period.
As acetate (A), propionate (P) and butyrate (B) are the main fatty acids produced by intestinal bacteria, the results are expressed as the ratio of each fatty acid to the sum of the 3 fatty acids.

intestinal bacteria = experiment: Prebiotic Index (gut lumen) and Prebiotic Attachment Index (gut wall mucus) in TWINSHIME; assay type: cell-based, human; conditions: from day 23, TWINSHIME
Description: FIG. 4 Prebiotic Index (PI) and Prebiotic Attachment Index (PAI) before, during and after treatment with respectively inulin and AX. The X-axis indicates experiment days during the TWINSHIME run. Inulin or AX were administered to the TWINSHIME from day 2 until day 23.
In addition to the above-mentioned measurements, experiments were performed to quantify the attachment of intestinal bacteria to the mucus layer at the gut wall. As attachment to the gut wall is the first stage of interaction between bacteria and the human host (e.g. immunomodulation, pathogenesis), characterization of the microbial ecology at the site of the gut wall and assessment of changes in this community due to a prebiotic treatment is very important to evaluate the final health effects of a prebiotic treatment. Finally, the effect of the prebiotic treatment with inulin or AX on the composition of the microbial community in both the gut lumen and at the gut wall can be expressed quantitatively in specific indices.
The Prebiotic Index (PI) describes the increase in the gut lumen in beneficial bacteria, relative to harmful bacteria due to the prebiotic treatment. PI=(Bif/Total)+(Lac/Total)−(Ecol/Total)−(Clos/Total) […]
For both indices, an increase in the quantitative value is evaluated as positive, with the degree of increase as a parameter for success of the prebiotic treatment (FIG. 4).

inulin was tested, and the “composition of the bifidobacterial community in the cecum (DGGE)” value (bifidobacteria) was “little changes”, the “prebiotic effect (relative increase in P and B compared to A) in the colon compartments” value ([1]; SHIME, 1.5 g/d) was “only minor effects were observed in one colon compartment” and the “A ratio (A/(A + P + B)), Ascending colon” value ([1]; treatment period, 1.5 g/d) was 0.45. The “A ratio, Descending colon” value ([1]; treatment period, 1.5 g/d) was 0.48, the “A ratio, Transverse colon” value ([1]; treatment period, 1.5 g/d) was 0.43 and the “B ratio, Ascending colon” value ([1]; treatment period, 1.5 g/d) was 0.27. The “B ratio, Descending colon” value ([1]; treatment period, 1.5 g/d) was 0.24, the “B ratio, Transverse colon” value ([1]; treatment period, 1.5 g/d) was 0.26 and the “P ratio, Ascending colon” value ([1]; treatment period, 1.5 g/d) was 0.29. The “P ratio, Descending colon” value ([1]; treatment period, 1.5 g/d) was 0.28, the “P ratio, Transverse colon” value ([1]; treatment period, 1.5 g/d) was 0.31 and the “A ratio (A/(A + P + B)), Ascending colon” value ([1]; wash-out period) was 0.45. For the same substance, the “A ratio, Descending colon” value ([1]; wash-out period) was 0.53, the “A ratio, Transverse colon” value ([1]; wash-out period) was 0.44 and the “B ratio, Ascending colon” value ([1]; wash-out period) was 0.20. The “B ratio, Descending colon” value ([1]; wash-out period) was 0.19, the “B ratio, Transverse colon” value ([1]; wash-out period) was 0.21 and the “P ratio, Ascending colon” value ([1]; wash-out period) was 0.35. The “P ratio, Descending colon” value ([1]; wash-out period) was 0.28, the “P ratio, Transverse colon” value ([1]; wash-out period) was 0.35 and the “Prebiotic Attachment Index (PAI) after stopping the administration” value (intestinal bacteria) was “returned back to baseline”. The “Prebiotic Index (PI) after stopping the administration” value (intestinal bacteria) was “returned back to baseline”.
